In PubChem BioAssay AID248 (DTP/NCI, 2004):
Several values for one entry are separate records, joined by “and”; a condition that tells them apart may be missing. Equal entries are not always repeated. Inconclusive results and toxic doses are left out. No stated cut-off is given here; in the data, active means T/C of 150% or more; inactive means T/C below 125%.

System: L1210 leukemia ip in BDF1 mice, survival T/C
Experiment: NCI In Vivo Anticancer Drug Screen. Data for tumor model L1210 Leukemia (intraperitoneal) in B6D2F1 (BDF1) mice
Conditions: endpoint: mean survival time, higher = longer survival
Summary of the method: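 Mice bearing the transplanted tumor received compound or vehicle. Survival of the treated group was divided by that of the vehicle-treated control group to give the ratio.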

[1] = dose: 100.0 mg/kg/injection, schedule: Q01DX001 (ip), vehicle: carboxymethylcellulose (CMC)
[2] = dose: 100.0 mg/kg/injection, schedule: Q04DX003 (ip), vehicle: Klucel (hydroxypropylcellulose) (HPC)
[3] = dose: 200.0 mg/kg/injection, schedule: Q01DX001 (ip), vehicle: carboxymethylcellulose (CMC)
[4] = dose: 400.0 mg/kg/injection, schedule: Q01DX001 (ip), vehicle: carboxymethylcellulose (CMC)
[5] = dose: 5.0 mg/kg/injection, schedule: Q01DX001 (ip), vehicle: saline
[6] = dose: 10.0 mg/kg/injection, schedule: Q01DX001 (ip), vehicle: saline
[7] = dose: 20.0 mg/kg/injection, schedule: Q01DX001 (ip), vehicle: saline
[8] = dose: 40.0 mg/kg/injection, schedule: Q01DX001 (ip), vehicle: saline
[9] = dose: 50.0 mg/kg/injection, schedule: Q04DX003 (ip), vehicle: saline
[10] = dose: 100.0 mg/kg/injection, schedule: Q01DX001 (ip), vehicle: saline
[11] = dose: 100.0 mg/kg/injection, schedule: Q04DX003 (ip), vehicle: saline
[12] = dose: 200.0 mg/kg/injection, schedule: Q01DX001 (ip), vehicle: saline
[13] = dose: 400.0 mg/kg/injection, schedule: Q01DX001 (ip), vehicle: saline

Measured: T/C

CC1(C)C2CC3C(CCC4C(=O)OC(=O)C43)C1C2 (stereo not given)
inactive: dose: 100.0 mg/kg/injection, schedule: Q01DX001 (ip), vehicle: Klucel (hydroxypropylcellulose) (HPC) 97 % of control | dose: 200.0 mg/kg/injection, schedule: Q01DX001 (ip), vehicle: Klucel (hydroxypropylcellulose) (HPC) 98 % of control | dose: 400.0 mg/kg/injection, schedule: Q01DX001 (ip), vehicle: Klucel (hydroxypropylcellulose) (HPC) 103 % of control

O=C(OC1COC(Br)C(OC(=O)c2ccccc2)C1OC(=O)c1ccccc1)c1ccccc1 (stereo not given)
inactive: dose: 50.0 mg/kg/injection, schedule: Q01DX001 (ip), vehicle: carboxymethylcellulose (CMC) 90 % of control | [1] 95 % of control and 97 % of control | dose: 100.0 mg/kg/injection, schedule: Q01DX009 (ip), vehicle: Klucel (hydroxypropylcellulose) (HPC) 97 % of control | [2] 106 % of control | [3] 93 % of control and 94 % of control | dose: 200.0 mg/kg/injection, schedule: Q01DX009 (ip), vehicle: Klucel (hydroxypropylcellulose) (HPC) 103 % of control | dose: 200.0 mg/kg/injection, schedule: Q04DX003 (ip), vehicle: Klucel (hydroxypropylcellulose) (HPC) 104 % of control | [4] 98 % of control and 94 % of control | dose: 400.0 mg/kg/injection, schedule: Q01DX009 (ip), vehicle: Klucel (hydroxypropylcellulose) (HPC) 98 % of control | dose: 400.0 mg/kg/injection, schedule: Q04DX003 (ip), vehicle: Klucel (hydroxypropylcellulose) (HPC) 98 % of control

O=C(C[n+]1ccccc1-c1ccccn1)c1ccccc1
inactive: [5] 103 % of control | [6] 103 % of control | [7] 105 % of control | [8] 113 % of control

CNC(=O)CCC(=O)O
inactive: [9] 103 % of control | [10] 102 % of control | [11] 107 % of control | [12] 93 % of control | dose: 200.0 mg/kg/injection, schedule: Q04DX003 (ip), vehicle: saline 108 % of control | [13] 94 % of control

CN(C)[C@@H]1C(=O)C(C(=O)NCNc2nc3n[nH]nc3c(=O)[nH]2)=C(O)[C@@]2(O)C(=O)C3=C(O)c4c(O)cccc4[C@@](C)(O)[C@H]3C[C@@H]12
inactive: dose: 12.5 mg/kg/injection, schedule: Q01DX009 (ip), vehicle: acetone 98 % of control | dose: 25.0 mg/kg/injection, schedule: Q01DX009 (ip), vehicle: acetone 104 % of control | dose: 50.0 mg/kg/injection, schedule: Q01DX009 (ip), vehicle: acetone 122 % of control | [10] 102 % of control | dose: 100.0 mg/kg/injection, schedule: Q01DX009 (ip), vehicle: acetone 117 % of control | [12] 96 % of control | dose: 200.0 mg/kg/injection, schedule: Q01DX009 (ip), vehicle: acetone 122 % of control | [13] 105 % of control

O=[N+]([O-])c1ccc(C[n+]2ccccc2)cc1
inactive: dose: 50.0 mg/kg/injection, schedule: Q01DX009 (ip), vehicle: saline 89 % of control

COc1cc2c(c(OC)c1OC)CCNC2
inactive: [5] 100 % of control | [6] 100 % of control | [7] 100 % of control | [8] 101 % of control

COc1ccccc1OCCOCCNC1CC2CCC1(C)C2(C)C (stereo not given)
inactive: [2] 88 % of control

OCCS
inactive: dose: 25.0 mg/kg/injection, schedule: Q01DX001 (ip), vehicle: saline 105 % of control | dose: 44.0 mg/kg/injection, schedule: Q01DX001 (ip), vehicle: saline 95 % of control | dose: 50.0 mg/kg/injection, schedule: Q01DX001 (ip), vehicle: saline 97 % of control | dose: 66.0 mg/kg/injection, schedule: Q01DX001 (ip), vehicle: saline 105 % of control | [10] 100 % of control and 103 % of control | dose: 150.0 mg/kg/injection, schedule: Q01DX001 (ip), vehicle: saline 103 % of control | [12] 102 % of control and 105 % of control

N#CCc1ccccc1C(=O)O
inactive: dose: 100.0 mg/kg/injection, schedule: Q01DX009 (ip), vehicle: gum acacia 105 % of control | dose: 100.0 mg/kg/injection, schedule: Q04DX003 (ip), vehicle: gum acacia 96 % of control | dose: 200.0 mg/kg/injection, schedule: Q01DX009 (ip), vehicle: gum acacia 94 % of control | dose: 200.0 mg/kg/injection, schedule: Q04DX003 (ip), vehicle: gum acacia 91 % of control | dose: 400.0 mg/kg/injection, schedule: Q01DX009 (ip), vehicle: gum acacia 88 % of control | dose: 400.0 mg/kg/injection, schedule: Q04DX003 (ip), vehicle: gum acacia 97 % of control

CC(=O)N1C(=O)N(Cl)C(=O)C1(c1ccc(Cl)cc1)c1ccc(Cl)cc1
inactive: dose: 100.0 mg/kg/injection, schedule: Q01DX009 (ip), vehicle: saline with Tween-80 108 % of control | dose: 100.0 mg/kg/injection, schedule: Q04DX003 (ip), vehicle: saline with Tween-80 92 % of control | dose: 200.0 mg/kg/injection, schedule: Q01DX009 (ip), vehicle: saline with Tween-80 104 % of control | dose: 200.0 mg/kg/injection, schedule: Q04DX003 (ip), vehicle: saline with Tween-80 100 % of control | dose: 400.0 mg/kg/injection, schedule: Q01DX009 (ip), vehicle: saline with Tween-80 102 % of control | dose: 400.0 mg/kg/injection, schedule: Q04DX003 (ip), vehicle: saline with Tween-80 98 % of control

BrCC1COc2ccccc2O1 (stereo not given)
inactive: [1] 100 % of control | [3] 100 % of control | [4] 91 % of control

CC(=O)OCOC(COC(C)=O)C1OCOC(COC(C)=O)C1OCOC(C)=O (stereo not given)
inactive: dose: 100.0 mg/kg/injection, schedule: Q04DX002 (ip), vehicle: saline with Tween-80 100 % of control | dose: 200.0 mg/kg/injection, schedule: Q04DX002 (ip), vehicle: saline with Tween-80 100 % of control | dose: 400.0 mg/kg/injection, schedule: Q04DX002 (ip), vehicle: saline with Tween-80 100 % of control

O=C(NOCc1cscn1)Nc1ccccc1
inactive: [10] 101 % of control | [12] 104 % of control | [13] 104 % of control

CC(C)(C)C(Br)C(=O)Nc1ccccc1 (stereo not given)
inactive: [10] 104 % of control | [12] 102 % of control | [13] 102 % of control

COC(=O)C1=C(C(=O)OC)[N+](C)(C)N=C1[O-]
inactive: dose: 25.0 mg/kg/injection, schedule: Q04DX003 (ip), vehicle: saline 110 % of control | [9] 104 % of control | [11] 95 % of control and 101 % of control

C1=C(c2ccccc2)N(C2CC2)C(c2ccccc2)=CN1Cc1ccccc1
inactive: dose: 100.0 mg/kg/injection, schedule: Q04DX002 (ip), vehicle: Klucel (hydroxypropylcellulose) (HPC) 95 % of control | dose: 200.0 mg/kg/injection, schedule: Q04DX002 (ip), vehicle: Klucel (hydroxypropylcellulose) (HPC) 118 % of control | dose: 400.0 mg/kg/injection, schedule: Q04DX002 (ip), vehicle: Klucel (hydroxypropylcellulose) (HPC) 103 % of control

CC(NS(=O)(=O)Cc1ccccc1)C(=O)O (stereo not given)
inactive: dose: 100.0 mg/kg/injection, schedule: Q01DX001 (ip), vehicle: other 96 % of control | dose: 100.0 mg/kg/injection, schedule: Q04DX003 (ip), vehicle: other 107 % of control | dose: 200.0 mg/kg/injection, schedule: Q01DX001 (ip), vehicle: other 95 % of control | dose: 200.0 mg/kg/injection, schedule: Q04DX003 (ip), vehicle: other 96 % of control | dose: 400.0 mg/kg/injection, schedule: Q01DX001 (ip), vehicle: other 104 % of control | dose: 400.0 mg/kg/injection, schedule: Q04DX003 (ip), vehicle: other 106 % of control
